Experimental data as given in patent publication US11413278B2, “Compounds and methods for promoting stress resistance” (priority 2015, dated 2022).
Where two headings read alike, the source gives them in different places.

Experiments:
WI-38 cells [1] = test: Propidium iodide (PI) cell-death imaging upon H2O2 stress; type: cell-based, human; settings: for Assay 7: H2O2-resistant, at 10 uM, validated by propidium iodide (PI) cell-death imaging: w/H2O2, 3 hrs/4 hrs/5 hrs, YES/NO; for cytotoxicity at 10 µM: Homo sapiens, WI-38
WI-38 cells [2] = test: CdCl2 (cadmium) resistance assay; type: cell-based, human; settings: for fold induction at 10 µM: Homo sapiens, 12 h, normalized ATP measurement; for Assay 2: Cadmium-resistant: * indicates partial
Summary of the method: (§1)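 WI-38 cells were given compounds at five final concentrations (0.25–20 μM) in triplicate, followed by cadmium or MMS for 12 h. For MMS, medium was switched from OptiMEM+10% FBS to serum-free DMEM+2% BSA when compounds were added, 24 h before stressor. Two independent assays were run, analysed by global variance t-test.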

WI-38 cells [3] = test: MMS resistance assay; type: cell-based, human; settings: for fold induction at 10 µM: Homo sapiens, 12 h, normalized ATP measurement; for Triple resistant: H2O2, CdCl2 and MMS
Summary of the method: as §1

[4] = system: human dermal fibroblast (HDF) primary cells; test: H2O2-resistance in primary human dermal fibroblasts; type: cell-based; settings: for fold induction at 10 µM: Homo sapiens; for Assay 6: H2O2-resistant, at 10 uM, human dermal fibroblast (HDF) primary cells: YES/NO
C. elegans = type: in vivo, Caenorhabditis elegans; settings: in vivo
Summary of the method: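 Worms treated in liquid with compounds in 96-well plates (4 wells each, FUdR to block progeny, 0.2% DMSO controls); H2O2 at 500 μM final added on day 4 of adulthood and viability scored daily.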

WI-38 cells [5] = test: Long-term effects on cell viability (5 days, ATP; morphology, PI imaging); type: cell-based; settings: 10 μM; for Luminescence signal for ATP measurement, day-1 Average / Luminescence signal for ATP measurement, day-2 Average / Luminescence signal for ATP measurement, day-3 Average / Luminescence signal for ATP measurement, day-4 Average / Luminescence signal for ATP measurement, day-5 Average / viability at 10 µM: Batch 1; for Luminescence signal for ATP measurement, day-1 Average / Luminescence signal for ATP measurement, day-2 Average / Luminescence signal for ATP measurement, day-3 Average / Luminescence signal for ATP measurement, day-4 Average / Luminescence signal for ATP measurement, day-5 Average: n = 6, day-0 luminescence = 320956 ± 24708; for viability at 10 µM: Homo sapiens, WI-38, 120 h, DMSO ctrl = 100.0%, read-out: ATP luminescence by day-5 normalized; for Luminescence signal for ATP measurement, day-5 Average / viability at 10 µM: day-5; for O = Potential toxicity / Q = Potential toxicity: human, 5 days;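 for Luminescence signal for ATP measurement, day-2 Average: compounds at 10 µM with ATP read daily over 5 days of treatment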;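 for Luminescence signal for ATP measurement, day-3 Average: compounds at 10 µM with ATP read daily over 5 days of treatment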;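 for Luminescence signal for ATP measurement, day-4 Average: compounds at 10 µM with ATP read daily over 5 days of treatment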;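 for Luminescence signal for ATP measurement, day-5 Average: compounds at 10 µM with ATP read daily over 5 days of treatment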
[6] = Summary score for characterization of 38 core set hits; settings: for D = Triple resistant: 2-point score, multiplex resistance (cadmium, MMS, H2O2); for S = Sum of Negative scores: human; for C = H2O2- & Cd-resistant: score, resistance to both H2O2 and cadmium
Summary of the method: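 Composite score. 2 pts each: multiplex stress resistance, FOXO3/NRF2 activation, mTOR down-regulation. Worm lifespan (4–6 independent trials): 0 = no obvious effect, 1 = extension in 2 trials, 2 = extension in >2 trials. −1 for DNA damage and/or cytotoxicity in cultured human cells.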

[7] = H2O2 3 hrs, 10 uM, n = 6, negative control 5.44% ± 0.79%, read-out: Percentage of propidium iodide-positive dead cells (under H2O2 stress treatment), 3 hrs
[8] = pre-treatment at 10 uM, 3.5 hours of H2O2, DMSO control 27.4% ± 6.5%, */**/*** = reduced by one/two/three standard deviations, read-out: Percentage of propidium iodide-positive dead cells (under H2O2 stress treatment), at 10 uM
[9] = Exp. 1, WI-38 cells, read-out: Exp. 1, under Cd2Cl2 stress treatment, at 10 uM (fold change)
[10] = Exp. 2, WI-38 cells, read-out: Exp. 2, under Cd2Cl2 stress treatment, at 10 uM (fold change)
[11] = WI-38 cells, 10 μM, both stressors
[12] = score in summary of 38 core set hits
[13] = Exp. 1, WI-38 cells, read-out: Exp. 1, under MMS stress treatment, at 10 uM (fold change)
[14] = Exp. 2, WI-38 cells, read-out: Exp. 2, under MMS stress treatment, at 10 uM (fold change)
[15] = Experiment 1, HDF cells, read-out: Experiment 1, HDF cells (under H2O2 stress treatment), at 10 uM (fold change)
[16] = Experiment 2, HDF cells, read-out: Experiment 2, HDF cells (under H2O2 stress treatment), at 10 uM (fold change)

## CCCC(=O)Nc1ccc(-c2cn3cccc(C)c3n2)cc1 [O12]
WI-38 cells [1]; 10 uM
  Assay 7: H2O2-resistant, at 10 uM, validated by propidium iodide (PI) cell-death imaging: YES
WI-38 cells [1]; [7]
  cytotoxicity at 10 µM: 0.74%
WI-38 cells [1]; H2O2 4 hrs, 10 uM, n = 6, negative control 16.81% ± 1.42%, read-out: Percentage of propidium iodide-positive dead cells (under H2O2 stress treatment), 4 hrs
  cytotoxicity at 10 µM: 0.77%
WI-38 cells [1]; H2O2 5 hrs, 10 uM, n = 6, negative control 22.50% ± 1.53%, read-out: Percentage of propidium iodide-positive dead cells (under H2O2 stress treatment), 5 hrs
  cytotoxicity at 10 µM: 1.33%
WI-38 cells [1]; [8]
  cytotoxicity at 10 µM: 0.4%
WI-38 cells [2]
  CdCl2-resistant: YES
  H2O2- & CdCl2-resistant: YES
WI-38 cells [2]; [9]
  fold induction at 10 µM: 1.36
WI-38 cells [2]; [10]
  fold induction at 10 µM: 1.59
WI-38 cells [2]; WI-38 cells, 10 μM
  CdCl2-resistant: YES
WI-38 cells [2]; [11]
  H2O2- & CdCl2-resistant: YES
WI-38 cells [2]; YES/NO
  Assay 2: Cadmium-resistant: NO *
WI-38 cells [2]; [12]
  A = Cadmium resistant: 1
WI-38 cells [2]; summary score
  A = Cadmium resistant: 0
  C = H2O2- & Cd-resistant: 0
WI-38 cells [3]; [13]
  fold induction at 10 µM: 0.78
WI-38 cells [3]; [14]
  fold induction at 10 µM: 2
WI-38 cells [3]; [12]
  B = MMS resistant: 0
WI-38 cells [3]; summary score
  B = MMS resistant: 0
  D = Triple resistant: 0
[4]; [15]
  fold induction at 10 µM: 264
[4]; [16]
  fold induction at 10 µM: 49.2
[4]
  Assay 6: H2O2-resistant, at 10 uM, human dermal fibroblast (HDF) primary cells: YES
C. elegans
  H2O2-resistance assay, 1st experiment: YES;
  L = H2O2-resistance in worms: 0
  N = H2O2-resistance in woms: 0
WI-38 cells [5]
  Luminescence signal for ATP measurement, day-1 Average: 527095
  Luminescence signal for ATP measurement, day-2 Average: 702483
  Luminescence signal for ATP measurement, day-3 Average: 876448
  Luminescence signal for ATP measurement, day-4 Average: 1128385
  Luminescence signal for ATP measurement, day-5 Average: 1117938
  viability at 10 µM: 109%
  O = Potential toxicity: 0
  Q = Potential toxicity: 0
[6]
  D = Triple resistant: 0
  S = Sum of Negative scores: 0
  C = H2O2- & Cd-resistant: 1

## CC(C)(C)c1ccc(OCC(=O)Nc2ccc3c4c(cccc24)C(=O)NC3=O)cc1 [O22]
WI-38 cells [1]; 10 uM
  Assay 7: H2O2-resistant, at 10 uM, validated by propidium iodide (PI) cell-death imaging: YES
WI-38 cells [1]; [7]
  cytotoxicity at 10 µM: 4.84%
WI-38 cells [1]; [8]
  cytotoxicity at 10 µM: 4.1%
WI-38 cells [2]
  CdCl2-resistant: YES
  H2O2- & CdCl2-resistant: YES
WI-38 cells [2]; [9]
  fold induction at 10 µM: 5.61
WI-38 cells [2]; [10]
  fold induction at 10 µM: 14.7
WI-38 cells [2]; WI-38 cells, 10 μM
  CdCl2-resistant: YES
WI-38 cells [2]; [11]
  H2O2- & CdCl2-resistant: YES
WI-38 cells [2]; YES/NO
  Assay 4: H2O2- & Cd-resistant: YES
  Assay 2: Cadmium-resistant: YES
WI-38 cells [2]; [12]
  A = Cadmium resistant: 1
WI-38 cells [2]; summary score
  A = Cadmium resistant: 1
  C = H2O2- & Cd-resistant: 1
WI-38 cells [3]
  MMS-resistant: YES
  Triple resistant: YES
WI-38 cells [3]; 0.25 μM to 20 μM, repurchased molecules
  Multiplex resistance to cadmium, MMS and H2O2: reproducibly conferred multiplex resistance
WI-38 cells [3]; [13]
  fold induction at 10 µM: 3.22
WI-38 cells [3]; [14]
  fold induction at 10 µM: 14.8
WI-38 cells [3]; WI-38 cells, 10 μM
  MMS-resistant: YES
  Triple resistant: YES
WI-38 cells [3]; YES/NO, * indicates partial
  Assay 3: MMS-resistant: YES
WI-38 cells [3]; YES/NO, H2O2, cadmium and MMS
  Assay 5: Triple resistant: YES
WI-38 cells [3]; [12]
  B = MMS resistant: 1
WI-38 cells [3]; summary score
  B = MMS resistant: 1
  D = Triple resistant: 2
[4]; [15]
  fold induction at 10 µM: 15.3
[4]; [16]
  fold induction at 10 µM: 49.6
[4]
  Assay 6: H2O2-resistant, at 10 uM, human dermal fibroblast (HDF) primary cells: YES
C. elegans
  L = H2O2-resistance in worms: 0
  N = H2O2-resistance in woms: 0
WI-38 cells [5]
  Luminescence signal for ATP measurement, day-1 Average: 435891
  Luminescence signal for ATP measurement, day-2 Average: 566145
  Luminescence signal for ATP measurement, day-3 Average: 690403
  Luminescence signal for ATP measurement, day-4 Average: 840178
  Luminescence signal for ATP measurement, day-5 Average: 805461
  viability at 10 µM: 78.4%
  O = Potential toxicity: 0
  Q = Potential toxicity: 0
[6]
  D = Triple resistant: 2
  S = Sum of Negative scores: 0
  C = H2O2- & Cd-resistant: 1
